Data from ChEMBL document CHEMBL3784995, “Inhibitors of HIV-1 maturation: Development of structure-activity relationship for C-28 amides based on C-3 benzoic acid-modified triterpenoids” (Bioorg Med Chem Lett, 2016).

How the values were obtained:
[1] = tested on: Human immunodeficiency virus 1; experiment: Antiviral activity against wild type HIV1 NL4-3 habouring Gag protein V370A mutant infected in human MT2 cells after 4 to 5 days by dual-luciferase reporter gene assay; type: functional, organism-based; conditions: Human immunodeficiency virus 1, NL4-3, MT2
[2] = Cytotoxicity against human MT2 cells; type: cell-based
[3] = tested on: Human immunodeficiency virus 1; experiment: Antiviral activity against wild type HIV1 NL4-3 habouring Gag protein delta V370 infected in human MT2 cells after 4 to 5 days by dual-luciferase reporter gene assay; type: functional, organism-based; conditions: Human immunodeficiency virus 1, NL4-3, MT2
[4] = tested on: Human immunodeficiency virus 1; experiment: Antiviral activity against wild type HIV1 NL4-3 infected in human MT2 cells after 4 to 5 days by dual-luciferase reporter gene assay; type: functional, organism-based; conditions: Human immunodeficiency virus 1, NL4-3, MT2
[5] = tested on: Human immunodeficiency virus 1; experiment: Antiviral activity against wild type HIV1 NL4-3 infected in human MT2 cells after 4 to 5 days by dual-luciferase reporter gene assay in presence of human serum albumin; type: functional, organism-based; conditions: Human immunodeficiency virus 1, NL4-3, MT2
[6] = Metabolic stability in human liver microsomes at 0.5 uM by LC-MS/MS analysis in presence of NADPH; type: ADME
[7] = Metabolic stability in rat liver microsomes at 0.5 uM by LC-MS/MS analysis in presence of NADPH; type: ADME
[8] = AUC (0 to 6 hrs) in cannula implanted rat at 5 mg/kg administered through oral gavage after 24 hrs by LC-MS/MS analysis; type: ADME, organism-based; design: dose 5 mg/kg, time < 6 hr, route oral; conditions: in vivo
[9] = Plasma clearance in cannula implanted rat at 1 mg/kg, iv by LC-MS/MS analysis; type: ADME, organism-based
[10] = Cmax in cannula implanted rat at 5 mg/kg administered through oral gavage after 24 hrs by LC-MS/MS analysis; type: ADME, organism-based; design: dose 5 mg/kg, route oral; conditions: in vivo

C=C(C)[C@@H]1CC[C@]2(C(=O)N[C@@H](CN(C)C)C(=O)O)CC[C@]3(C)[C@H](CC[C@@H]4[C@@]5(C)CC=C(c6ccc(C(=O)O)cc6)C(C)(C)[C@@H]5CC[C@]43C)[C@@H]12
EC50 [1]: 772 nM
CC50 [2]: 25000 nM
EC50 [3]: > 160 nM
EC50 [4]: 46 nM

C=C(C)[C@@H]1CC[C@]2(C(=O)NS(=O)(=O)C3CC3)CC[C@]3(C)[C@H](CC[C@@H]4[C@@]5(C)CC=C(c6ccc(C(=O)O)cc6)C(C)(C)[C@@H]5CC[C@]43C)[C@@H]12
EC50 [1]: 67 nM
CC50 [2]: 18000 nM
EC50 [3]: 1190 nM
EC50 [5]: 166 nM
EC50 [4]: 59 nM

C=C(C)[C@@H]1CC[C@]2(C(=O)NCCN3CCCCC3)CC[C@]3(C)[C@H](CC[C@@H]4[C@@]5(C)CC=C(c6ccc(C(=O)O)cc6)C(C)(C)[C@@H]5CC[C@]43C)[C@@H]12
EC50 [1]: 10 nM
CC50 [2]: 10000 nM
EC50 [3]: 359 nM
EC50 [4]: 7 nM

C=C(C)[C@@H]1CC[C@]2(C(=O)NCCOC)CC[C@]3(C)[C@H](CC[C@@H]4[C@@]5(C)CC=C(c6ccc(C(=O)O)cc6)C(C)(C)[C@@H]5CC[C@]43C)[C@@H]12
EC50 [1]: 152 nM
CC50 [2]: 14000 nM
EC50 [4]: 17 nM

C=C(C)[C@@H]1CC[C@]2(C(=O)NCCN3CCOCC3)CC[C@]3(C)[C@H](CC[C@@H]4[C@@]5(C)CC=C(c6ccc(C(=O)O)cc6)C(C)(C)[C@@H]5CC[C@]43C)[C@@H]12
EC50 [1]: 12 nM
CC50 [2]: 5000 nM
EC50 [3]: 77 nM
EC50 [5]: 28 nM
EC50 [4]: 7 nM

C=C(C)[C@@H]1CC[C@]2(C(=O)NCCN(C)CC(=O)O)CC[C@]3(C)[C@H](CC[C@@H]4[C@@]5(C)CC=C(c6ccc(C(=O)O)cc6)C(C)(C)[C@@H]5CC[C@]43C)[C@@H]12
EC50 [1]: 51 nM
CC50 [2]: 200 nM
EC50 [3]: 160 nM
EC50 [4]: 10 nM

C=C(C)[C@@H]1CC[C@]2(C(=O)NC)CC[C@]3(C)[C@H](CC[C@@H]4[C@@]5(C)CC=C(c6ccc(C(=O)O)cc6)C(C)(C)[C@@H]5CC[C@]43C)[C@@H]12
EC50 [1]: 252 nM
CC50 [2]: 7000 nM
EC50 [5]: 28 nM
EC50 [4]: 10 nM

C=C(C)[C@@H]1CC[C@]2(C(=O)NCc3ccccn3)CC[C@]3(C)[C@H](CC[C@@H]4[C@@]5(C)CC=C(c6ccc(C(=O)O)cc6)C(C)(C)[C@@H]5CC[C@]43C)[C@@H]12
EC50 [1]: 31 nM
CC50 [2]: 1000 nM
EC50 [5]: 9 nM
EC50 [4]: 5 nM

C=C(C)[C@@H]1CC[C@]2(C(=O)NCCN(CC)CC(=O)O)CC[C@]3(C)[C@H](CC[C@@H]4[C@@]5(C)CC=C(c6ccc(C(=O)O)cc6)C(C)(C)[C@@H]5CC[C@]43C)[C@@H]12
half-life at 0.5 µM [6]: > 2 h
EC50 [1]: 9 nM
CC50 [2]: 17000 nM
half-life at 0.5 µM [7]: > 2 h
EC50 [3]: 64 nM
AUC(0-t) at 6 h [8]: 0.22 µM·h
EC50 [4]: 3 nM
clearance [9]: 26.7 mL/min/kg

C=C(C)[C@@H]1CC[C@]2(C(=O)NCC(=O)O)CC[C@]3(C)[C@H](CC[C@@H]4[C@@]5(C)CC=C(c6ccc(C(=O)O)cc6)C(C)(C)[C@@H]5CC[C@]43C)[C@@H]12
EC50 [1]: > 2000 nM
CC50 [2]: > 50000 nM
EC50 [3]: > 2000 nM
EC50 [4]: 106 nM

C=C(C)[C@@H]1CC[C@]2(C(=O)N3CCCCC3)CC[C@]3(C)[C@H](CC[C@@H]4[C@@]5(C)CC=C(c6ccc(C(=O)O)cc6)C(C)(C)[C@@H]5CC[C@]43C)[C@@H]12
CC50 [2]: 200 nM
EC50 [5]: 1580 nM
EC50 [4]: 369 nM

C=C(C)[C@@H]1CC[C@]2(C(=O)NCCN(CC)CCC(=O)O)CC[C@]3(C)[C@H](CC[C@@H]4[C@@]5(C)CC=C(c6ccc(C(=O)O)cc6)C(C)(C)[C@@H]5CC[C@]43C)[C@@H]12
EC50 [1]: 6 nM
CC50 [2]: > 17000 nM
EC50 [3]: 119 nM
EC50 [4]: 2 nM

C=C(C)[C@@H]1CC[C@]2(C(=O)NCCNC(C)=O)CC[C@]3(C)[C@H](CC[C@@H]4[C@@]5(C)CC=C(c6ccc(C(=O)O)cc6)C(C)(C)[C@@H]5CC[C@]43C)[C@@H]12
EC50 [1]: 24 nM
CC50 [2]: 12000 nM
EC50 [3]: 361 nM
EC50 [5]: 22 nM
EC50 [4]: 5 nM

C=C(C)[C@@H]1CC[C@]2(C(=O)NCCN(C)C(C)=O)CC[C@]3(C)[C@H](CC[C@@H]4[C@@]5(C)CC=C(c6ccc(C(=O)O)cc6)C(C)(C)[C@@H]5CC[C@]43C)[C@@H]12
EC50 [1]: 2 nM
CC50 [2]: 9000 nM
EC50 [3]: 224 nM
EC50 [4]: 3 nM

C=C(C)[C@@H]1CC[C@]2(C(=O)NCCN(CC(=O)O)CC(=O)O)CC[C@]3(C)[C@H](CC[C@@H]4[C@@]5(C)CC=C(c6ccc(C(=O)O)cc6)C(C)(C)[C@@H]5CC[C@]43C)[C@@H]12
EC50 [1]: > 2000 nM
CC50 [2]: > 20000 nM
EC50 [3]: > 2000 nM
EC50 [4]: > 2000 nM

C=C(C)[C@@H]1CC[C@]2(C(=O)NCCC(C)C)CC[C@]3(C)[C@H](CC[C@@H]4[C@@]5(C)CC=C(c6ccc(C(=O)O)cc6)C(C)(C)[C@@H]5CC[C@]43C)[C@@H]12
EC50 [1]: 101 nM
CC50 [2]: 11000 nM
Cmax [10]: 731 nM
EC50 [3]: 1610 nM
AUC(0-t) at 6 h [8]: 1.58 µM·h
EC50 [4]: 47 nM
clearance [9]: 0.6 mL/min/kg

C=C(C)[C@@H]1CC[C@]2(C(=O)NCCNCC(=O)O)CC[C@]3(C)[C@H](CC[C@@H]4[C@@]5(C)CC=C(c6ccc(C(=O)O)cc6)C(C)(C)[C@@H]5CC[C@]43C)[C@@H]12
EC50 [1]: 15 nM
CC50 [2]: > 2000 nM
EC50 [3]: 61 nM
EC50 [4]: 42 nM

C=C(C)[C@@H]1CC[C@]2(C(=O)NCC(C)(C)N)CC[C@]3(C)[C@H](CC[C@@H]4[C@@]5(C)CC=C(c6ccc(C(=O)O)cc6)C(C)(C)[C@@H]5CC[C@]43C)[C@@H]12
EC50 [1]: 21 nM
CC50 [2]: 20000 nM
EC50 [3]: 800 nM
EC50 [4]: 7 nM

C=C(C)[C@@H]1CC[C@]2(C(=O)NCC(N)=O)CC[C@]3(C)[C@H](CC[C@@H]4[C@@]5(C)CC=C(c6ccc(C(=O)O)cc6)C(C)(C)[C@@H]5CC[C@]43C)[C@@H]12
EC50 [1]: 32 nM
CC50 [2]: 9000 nM
EC50 [3]: 2000 nM
EC50 [4]: 6 nM

C=C(C)[C@@H]1CC[C@]2(C(=O)NCCN)CC[C@]3(C)[C@H](CC[C@@H]4[C@@]5(C)CC=C(c6ccc(C(=O)O)cc6)C(C)(C)[C@@H]5CC[C@]43C)[C@@H]12
EC50 [1]: 7 nM
CC50 [2]: 4000 nM
EC50 [3]: 702 nM
EC50 [4]: 3 nM

C=C(C)[C@@H]1CC[C@]2(C(=O)NS(C)(=O)=O)CC[C@]3(C)[C@H](CC[C@@H]4[C@@]5(C)CC=C(c6ccc(C(=O)O)cc6)C(C)(C)[C@@H]5CC[C@]43C)[C@@H]12
EC50 [1]: 282 nM
CC50 [2]: 16000 nM
EC50 [5]: 1520 nM
EC50 [4]: 47 nM

C=C(C)[C@@H]1CC[C@]2(C(=O)NCc3nccs3)CC[C@]3(C)[C@H](CC[C@@H]4[C@@]5(C)CC=C(c6ccc(C(=O)O)cc6)C(C)(C)[C@@H]5CC[C@]43C)[C@@H]12
EC50 [1]: 28 nM
CC50 [2]: 6000 nM
EC50 [3]: 690 nM
EC50 [4]: 15 nM

C=C(C)[C@@H]1CC[C@]2(C(=O)NCCO)CC[C@]3(C)[C@H](CC[C@@H]4[C@@]5(C)CC=C(c6ccc(C(=O)O)cc6)C(C)(C)[C@@H]5CC[C@]43C)[C@@H]12
EC50 [1]: 41 nM
CC50 [2]: 7000 nM
EC50 [3]: > 2000 nM
EC50 [5]: 39 nM
EC50 [4]: 7 nM

C=C(C)[C@@H]1CC[C@]2(C(=O)NCCN(CC)CC)CC[C@]3(C)[C@H](CC[C@@H]4[C@@]5(C)CC=C(c6ccc(C(=O)O)cc6)C(C)(C)[C@@H]5CC[C@]43C)[C@@H]12
EC50 [1]: 7 nM
CC50 [2]: 33000 nM
Cmax [10]: 229 nM
EC50 [3]: 39 nM
AUC(0-t) at 6 h [8]: 0.809 µM·h
EC50 [4]: 2 nM
clearance [9]: 3.3 mL/min/kg
